# Article PMC9516332 (Frontiers in Oncology, 2022)
# Like-named read-outs stand apart in the source and are kept apart here.
# What was measured:
# Assay in all cases: Kinase panel profiling at 1 µmol/L (MSA or IMAP), percentage inhibition
# Format in all cases: biochemical
# [1] = molecular target: T1, panel of 255 wild-type kinases (Homo sapiens, UniProt O14757); details: CHK1 kinase assay; 1 µmol/L single concentration; read-out: %-inhibition CHK1
# T1 sequence (O14757 1-476): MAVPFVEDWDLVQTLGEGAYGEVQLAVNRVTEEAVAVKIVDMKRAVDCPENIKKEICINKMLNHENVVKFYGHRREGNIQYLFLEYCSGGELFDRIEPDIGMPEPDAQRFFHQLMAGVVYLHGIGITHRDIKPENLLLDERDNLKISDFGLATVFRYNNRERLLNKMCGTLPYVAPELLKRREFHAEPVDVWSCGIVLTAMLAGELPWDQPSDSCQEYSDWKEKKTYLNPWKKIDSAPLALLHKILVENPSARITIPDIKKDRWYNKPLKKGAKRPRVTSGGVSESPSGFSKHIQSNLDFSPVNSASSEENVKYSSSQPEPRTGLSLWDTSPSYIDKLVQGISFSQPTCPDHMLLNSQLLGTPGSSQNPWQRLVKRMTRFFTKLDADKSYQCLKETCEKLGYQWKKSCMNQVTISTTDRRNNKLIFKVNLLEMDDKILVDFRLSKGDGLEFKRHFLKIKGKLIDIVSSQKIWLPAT
# [2] = molecular target: T2, panel of 255 wild-type kinases (Homo sapiens, UniProt O14920); details: kinase IKKβ; 1 µmol/L single concentration; read-out: %-inhibition at 1 µmol/L, IKKβ
# T2 sequence (O14920 1-756): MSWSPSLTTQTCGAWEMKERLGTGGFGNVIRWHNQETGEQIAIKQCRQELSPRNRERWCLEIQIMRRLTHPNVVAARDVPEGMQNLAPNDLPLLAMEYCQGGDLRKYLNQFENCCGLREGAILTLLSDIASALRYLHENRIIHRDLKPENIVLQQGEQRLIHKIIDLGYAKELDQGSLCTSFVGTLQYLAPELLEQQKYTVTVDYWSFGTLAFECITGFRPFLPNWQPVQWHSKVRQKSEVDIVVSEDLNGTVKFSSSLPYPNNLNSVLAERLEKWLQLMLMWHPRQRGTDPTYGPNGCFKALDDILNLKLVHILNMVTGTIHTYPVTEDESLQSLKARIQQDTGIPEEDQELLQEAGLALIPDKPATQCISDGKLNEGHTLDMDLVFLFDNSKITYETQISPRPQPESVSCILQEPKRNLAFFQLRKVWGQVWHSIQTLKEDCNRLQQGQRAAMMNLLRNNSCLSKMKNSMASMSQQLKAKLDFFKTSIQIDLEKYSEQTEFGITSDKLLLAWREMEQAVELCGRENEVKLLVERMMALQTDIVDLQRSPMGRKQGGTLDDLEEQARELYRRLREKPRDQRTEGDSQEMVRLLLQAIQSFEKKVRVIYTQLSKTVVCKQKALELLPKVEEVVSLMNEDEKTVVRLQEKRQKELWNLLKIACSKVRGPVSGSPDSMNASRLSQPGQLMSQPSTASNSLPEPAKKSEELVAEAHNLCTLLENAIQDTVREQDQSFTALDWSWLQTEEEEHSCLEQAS
# [3] = molecular target: T3, panel of 255 wild-type kinases (Homo sapiens, UniProt O60285); details: NuaK1; 1 µmol/L single concentration; read-out: %-inhibition, NuaK1
# T3 sequence (O60285 1-661): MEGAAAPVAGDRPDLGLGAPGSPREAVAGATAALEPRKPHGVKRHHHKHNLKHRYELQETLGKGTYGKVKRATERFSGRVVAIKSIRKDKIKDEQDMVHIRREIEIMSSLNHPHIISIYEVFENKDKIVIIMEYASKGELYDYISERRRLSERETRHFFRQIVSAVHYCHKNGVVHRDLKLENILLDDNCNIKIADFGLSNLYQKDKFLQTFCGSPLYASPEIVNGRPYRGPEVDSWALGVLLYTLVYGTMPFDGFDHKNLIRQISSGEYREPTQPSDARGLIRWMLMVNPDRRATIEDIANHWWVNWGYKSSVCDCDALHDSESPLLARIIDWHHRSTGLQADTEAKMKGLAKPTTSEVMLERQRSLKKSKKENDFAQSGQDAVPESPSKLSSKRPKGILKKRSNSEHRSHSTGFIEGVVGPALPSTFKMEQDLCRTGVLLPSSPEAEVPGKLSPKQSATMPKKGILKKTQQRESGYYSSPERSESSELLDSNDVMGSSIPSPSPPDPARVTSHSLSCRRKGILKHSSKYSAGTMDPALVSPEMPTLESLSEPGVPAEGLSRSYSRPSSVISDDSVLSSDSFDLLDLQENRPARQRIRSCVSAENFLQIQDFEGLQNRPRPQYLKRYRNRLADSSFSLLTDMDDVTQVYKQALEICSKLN
# [4] = molecular target: panel of 255 wild-type kinases (Homo sapiens, UniProt O75116); details: kinase ROCK2; 1 µmol/L single concentration; read-out: %-inhibition at 1 µmol/L, ROCK2
# [5] = molecular target: panel of 255 wild-type kinases (Homo sapiens, UniProt P00519); details: ABL kinase assay; 1 µmol/L single concentration; read-out: %-inhibition ABL
# [6] = molecular target: panel of 255 wild-type kinases (Homo sapiens, UniProt P07333); details: kinase FMS; 1 µmol/L single concentration; read-out: %-inhibition at 1 µmol/L, FMS
# [7] = molecular target: panel of 255 wild-type kinases (Homo sapiens, UniProt Q05397); details: read-out: %-inhibition at 1 µmol/L, FAK
# [8] = molecular target: panel of 255 wild-type kinases (Homo sapiens, UniProt Q13164); details: kinase Erk5; 1 µmol/L single concentration; read-out: %-inhibition at 1 µmol/L, Erk5
# [9] = molecular target: panel of 255 wild-type kinases (Homo sapiens, UniProt Q13627); details: kinase DYRK1A; 1 µmol/L single concentration; read-out: %-inhibition at 1 µmol/L, DYRK1A
# [10] = molecular target: panel of 255 wild-type kinases (Homo sapiens, UniProt Q9BUB5); details: MNK1; 1 µmol/L single concentration; read-out: %-inhibition, MNK1
# [11] = molecular target: panel of 255 wild-type kinases (Homo sapiens, UniProt Q9UKE5); details: kinase TNIK; 1 µmol/L single concentration; read-out: %-inhibition at 1 µmol/L, TNIK
# [12] = kinase FAK, 1 µmol/L single concentration
"inhibition at 1 µM [7, 12]",Compound,inhibition at 1 µM [1],inhibition at 1 µM [2],inhibition at 1 µM [3],inhibition at 1 µM [4],inhibition at 1 µM [5],inhibition at 1 µM [6],inhibition at 1 µM [8],inhibition at 1 µM [9],inhibition at 1 µM [10],inhibition at 1 µM [11],inhibition at 1 µM [7]
14%,CO[C@]1(C(=O)N[C@@H](C)c2ccc(-n3cc(F)cn3)nc2)CC[C@H](c2nc(C)cc(Nc3cc(C)[nH]n3)n2)CC1 [pralsetinib],11%,32%,91%,1.29%,37%,94%,0.775%,-3%,-4.32%,6.58%,–
-1.17%,Cc1cc(Nc2ncnc3ccc(NC4=NC(C)(C)CO4)cc23)ccc1Oc1ccn2ncnc2c1 [tucatinib],5.71%,1%,9%,-1.34%,-3%,12%,-1.07%,-3.25%,-1.41%,4%,–
-1.33%,Cn1cnc2c(F)c(Nc3ccc(Br)cc3F)c(C(=O)NOCCO)cc21 [binimetinib],9%,-4%,-4.32%,-4%,-1.53%,7%,-0.05%,-8%,1.8%,0.137%,–
3.69%,Cc1nc(NC(=O)N2CCC[C@H]2C(N)=O)sc1-c1ccnc(C(C)(C)C(F)(F)F)c1 [alpelisib],11%,0.111%,9%,0.528%,16%,14%,0.367%,6%,2.72%,4.6%,–
–,CCc1nc(C(N)=O)c(Nc2ccc(N3CCC(N4CCN(C)CC4)CC3)c(OC)c2)nc1NC1CCOCC1 [gilteritinib],22%,5.66%,98%,66%,40%,104%,38%,18%,70%,94%,81%

Compound,"inhibition at 1 µM [7, 12]",inhibition at 1 µM [1],inhibition at 1 µM [2],inhibition at 1 µM [3],inhibition at 1 µM [4],inhibition at 1 µM [5],inhibition at 1 µM [6],inhibition at 1 µM [8],inhibition at 1 µM [9],inhibition at 1 µM [10],inhibition at 1 µM [11],inhibition at 1 µM [7]
C=CC(=O)N1CCC([C@@H]2CCNc3c(C(N)=O)c(-c4ccc(Oc5ccccc5)cc4)nn32)CC1 [zanubrutinib],13%,16%,-0.69%,-7%,-3.24%,-4.52%,-7%,3.76%,-4.37%,-4.39%,6.44%,–
COC(=O)N[C@@H](C)CNc1nccc(-c2cn(C(C)C)nc2-c2cc(Cl)cc(NS(C)(=O)=O)c2F)n1 [encorafenib],-3%,14%,0.644%,-0.237%,1.32%,-5.41%,8%,9%,6%,4.33%,14%,–
CCn1c(=O)c(-c2cc(NC(=O)Nc3ccccc3)c(F)cc2Br)cc2cnc(NC)cc21 [ripretinib],0.833%,3.57%,21%,4.32%,-1.2%,18%,71%,0.452%,1.4%,8.51%,28%,–
